This is an account of results in patent US20250382305A1 (PTC THERAPEUTICS, INC., priority 2022, published 2025).

The subject of one experiment is ATXN3 pre-mRNA. As to the kind of experiment: RT-qPCR Assay to Quantify Exon 4 Skipping in ATXN3 pre-mRNA in Cells. Conditions: percent exon 4 skipping in ATXN3 pre-mRNA, RT-qPCR of cell lysates; average IC50. In kind it is cell-based. The protocol: RT-qPCR Assay to Quantify Exon 4 Skipping in ATXN3 pre-mRNA in Cells
(§1) Test compounds were serially diluted 3.16-fold in 100% DMSO to generate a 7-point concentration curve. Aliquots of 0.5 μL of diluted compounds were transferred to a 96-well flat bottom plate by a liquid handler. An aliquot of 0.5 μL DMSO was also transferred to separate wells and used as controls. Duplicate samples were set up for each compound concentration and for the DMSO control.
Cells were thawed and incubated in cell culture media (DMEM, 10% FBS, and 1% antibiotic cocktail) for 72 h. Cells were trypsinized, counted, and re-suspended to a concentration of 100,000 cells/mL in cell culture media. A 100 μL aliquot of the cell suspensions were plated at 10,000 cells per well in the compound containing 96 well microtiter plate and incubated for in a cell culture incubator (37° C., 5% CO2, 100% relative humidity).
After 24 h, media was aspirated from the cells and 50 μL of the RCL2 lysis buffer (10 mM Tris-HCL pH 7.4, 150 mM NaCl, 0.33% IGEPAL® CA-630) was added to each well and incubated at RT for 1 min. Chilled nuclease free water (50 μL per well) was added and the plates were immediately transferred on ice. After 1 min on ice, plates were frozen at −80° C. overnight.
Preparation of RT-qPCR Reaction Mixture:
An aliquot of 2 μL/well of the cell lysates was transferred using the liquid handler to the Armadillo 384-Well PCR plate containing 8 μL/well of the RT-qPCR reaction mixture that was prepared as detailed above. The plates were then sealed with MicroAmp™ Optical Adhesive Film followed by spinning down for 1 min and placed in the CFX384 thermocycler (BioRad).
The RT-qPCR was carried out at the following temperatures for the indicated time: • Step 1: 48° C. (30 min) • Step 2: 95° C. (10 min) • Step 3: 95° C. (15 sec) • Step 4: 60° C. (1 min); then, repeated Steps 3 and 4 for a total of 40 cycles.
The percent exon 4 skipping was calculated for each dose of compound treatment using Equations 1 and 2.
Data were fit to a dose response curve and the IC50 was interpolated using XLfit® statistical and curve fitting package.
(§2) An average IC50>1 μM is indicated by one star (*), between >0.3 μM and ≤1 μM is indicated by two stars (**), between >0.03 μM and ≤0.3 μM is indicated by three stars (***), and ≤0.03 μM is indicated by four stars (****).
Background: In qPCR the cycle at which signal appears reflects the starting amount.

Experiment [1] concerns Total ATXN3 (tATXN3) protein. As to the kind of experiment: Endogenous Total ATXN3 (tATXN3) Protein Assay (MSD immunoassay of cell lysates). In kind it is cell-based. The settings on record: average IC50, total ATXN3 protein in cell lysate after 48 h with compound (Table 1). As for the experimental part: Endogenous Total ATXN3 (tATXN3) Protein Assay
Meso Scale Discovery (MSD) 96-well or 384-well plates were coated overnight at 4° C. with Ataxin 3 mouse monoclonal antibody (Invitrogen, MA3-082) at a concentration of 0.5 μg/mL in PBS (30 μL per well). Plates were then washed three times with 300 μL wash buffer (0.05% TWEEN®-20, polyethylene glycol sorbitan monolaurate, in PBS) and blocked (Meso Scale Diagnostics, R93BA-1; 5% BSA in PBS) for 2 h at RT with rotational shaking and then washed three times with wash buffer.
as §1
Cells were thawed and incubated in cell culture media (DMEM, 10% FBS, and 1% antibiotic cocktail) for 72 h. Cells were trypsinized, counted, and re-suspended to a concentration of 100,000 cells/mL in cell culture media. A 100 μL aliquot of the cell suspensions were plated at 10,000 cells per well in the compound containing 96 well microtiter plate and incubated for in a cell culture incubator (37° C., 5% CO2, 100% relative humidity). After 48 h, the medium was removed and 50-100 μL of lysis buffer (Meso Scale Diagnostics, R60TX-2) containing 1× halt protease inhibitor cocktail of (Thermo Scientific, Halt™ Protease Inhibitor Cocktail, 78430) per well was added to cells to provide a “cell lysate”. The plate was placed on a shaker at 4° C. for 30 minutes, then stored at −80° C.
Cell lysate samples (25 μL) were transferred to the antibody-coated MSD plate and incubated overnight at 4° C. After removal of the lysates, the plate was washed three times with wash buffer, and 25 μL of Ataxin 3 recombinant rabbit monoclonal antibody (Invitrogen, #702788) secondary antibody (diluted to 0.25 μg/mL in 0.05% TWEEN®-20 in blocking buffer) was added to each well and incubated with shaking for 1-2 h at room temperature. Following incubation with the secondary antibody, the wells were rinsed with wash buffer and then 25 μL of Anti Rabbit Antibody Goat SULFO-TAG Labeled (Meso Scale Diagnostics, R32AB-1) detecting antibody (diluted to […] in 0.05% TWEEN®-20 in blocking buffer) was added to each well and incubated with shaking for 1 h at room temperature. After rinsing three times with wash buffer, 150 μL of Read Buffer T with surfactant (tris-based buffer containing tripropylamine, Meso Scale Diagnostics, R92TC-1) were added to each empty well, and the plate was imaged on a SI 6000 imager (MSD) according to manufacturers' instructions provided for 96- or 384-well plates.
as §2

A value given as a limit tells only on which side of the number the result lay.

On to “2-((1R,6R)-6-aminocyclohex-3-en-1-yl)-5-chloro-3-methyl-N-(thiophen-2-ylmethyl)thieno[3,2-b]pyridin-7-amine and 2-((1S,6S)-6-aminocyclohex-3-en-1-yl)-5-chloro-3-methyl-N-(thiophen-2-ylmethyl)thieno[3,2-b]pyridin-7-amine [Compound 367]”, for which the IC50 (in the experiment on ATXN3 pre-mRNA; in experiment [1]) was 0.03 to 0.3 µM each time.

Regarding “2-((1R,6R)-6-aminocyclohex-3-en-1-yl-2,2,3,4,5,5-d6)-3,5-dichloro-N-(furan-2-ylmethyl)thieno[3,2-b]pyridin-7-amine and 2-((1S,6S)-6-aminocyclohex-3-en-1-yl-2,2,3,4,5,5-d6)-3,5-dichloro-N-(furan-2-ylmethyl)thieno[3,2-b]pyridin-7-amine [Compound 180]”, the IC50 (in the experiment on ATXN3 pre-mRNA; in experiment [1]) was no more than 0.03 µM in each case.

Take “2-((1R,6R)-6-aminocyclohex-3-en-1-yl-2,2,3,4,5,5-d6)-5-chloro-N-(furan-2-ylmethyl)-3-methylthieno[3,2-b]pyridin-7-amine and 2-((1S,6S)-6-aminocyclohex-3-en-1-yl-2,2,3,4,5,5-d6)-5-chloro-N-(furan-2-ylmethyl)-3-methylthieno[3,2-b]pyridin-7-amine [Compound 171]”: the IC50 (in the experiment with ATXN3 pre-mRNA; in experiment [1]) was no more than 0.03 µM in each case.

For the substance “2-((1R,6R)-6-aminocyclohex-3-en-1-yl-2,2,3,4,5,5-d6)-N-benzyl-5-chloro-3-methylthieno[3,2-b]pyridin-7-amine and 2-((1S,6S)-6-aminocyclohex-3-en-1-yl-2,2,3,4,5,5-d6)-N-benzyl-5-chloro-3-methylthieno[3,2-b]pyridin-7-amine [Compound 278]”, the IC50 (with ATXN3 pre-mRNA; in experiment [1]) was 0.03 to 0.3 µM each time.

Regarding “2-((1R,6S)-6-amino-2,2-difluorocyclohexyl)-3-bromo-5-chloro-N-(thiophen-2-ylmethyl)thieno[3,2-b]pyridin-7-amine and 2-((1S,6R)-6-amino-2,2-difluorocyclohexyl)-3-bromo-5-chloro-N-(thiophen-2-ylmethyl)thieno[3,2-b]pyridin-7-amine [Compound 269]”, the concentration for half-maximal inhibition (IC50) (in the experiment with ATXN3 pre-mRNA; in experiment [1]) was 0.03 to 0.3 µM each time.

Regarding “2-((1R,6S)-6-amino-2,2-difluorocyclohexyl)-3-bromo-N-((E)-but-2-en-1-yl)-5-chlorothieno[3,2-b]pyridin-7-amine and 2-((1S,6R)-6-amino-2,2-difluorocyclohexyl)-3-bromo-N-((E)-but-2-en-1-yl)-5-chlorothieno[3,2-b]pyridin-7-amine [Compound 425]”, the IC50 – broadly, the concentration needed to halve the response being measured – is 0.3 to 1 µM in the experiment on ATXN3 pre-mRNA and greater than 1 µM in experiment [1].

Take “2-((1R,6S)-6-amino-2,2-difluorocyclohexyl)-3-bromo-N-(but-2-yn-1-yl)-5-chlorothieno[3,2-b]pyridin-7-amine and 2-((1S,6R)-6-amino-2,2-difluorocyclohexyl)-3-bromo-N-(but-2-yn-1-yl)-5-chlorothieno[3,2-b]pyridin-7-amine [Compound 370]”: the concentration for half-maximal inhibition (IC50) (with ATXN3 pre-mRNA; in experiment [1]) was 0.03 to 0.3 µM in each case.

Turning to “2-((1R,6S)-6-amino-2,2-difluorocyclohexyl)-N-(but-2-yn-1-yl)-5-chloro-3-iodothieno[3,2-b]pyridin-7-amine and 2-((1S,6R)-6-amino-2,2-difluorocyclohexyl)-N-(but-2-yn-1-yl)-5-chloro-3-iodothieno[3,2-b]pyridin-7-amine [Compound 383]”, the IC50 (in the experiment on ATXN3 pre-mRNA; in experiment [1]) was 0.03 to 0.3 µM in each case.

With “2-((1S,2S)-2-aminocyclohexyl)-5-chloro-3-(fluoromethyl)-N-(thiophen-2-ylmethyl)thieno[3,2-b]pyridin-7-amine and 2-((1R,2R)-2-aminocyclohexyl)-5-chloro-3-(fluoromethyl)-N-(thiophen-2-ylmethyl)thieno[3,2-b]pyridin-7-amine [Compound 400]”, the IC50 (in the experiment with ATXN3 pre-mRNA; in experiment [1]) was 0.3 to 1 µM in each case.

As to “2-((1S,6S)-6-aminocyclohex-3-en-1-yl)-3-bromo-5-chloro-N-(thiophen-2-ylmethyl)thieno[3,2-b]pyridin-7-amine and 2-((1R,6R)-6-aminocyclohex-3-en-1-yl)-3-bromo-5-chloro-N-(thiophen-2-ylmethyl)thieno[3,2-b]pyridin-7-amine [Compound 256]”, the IC50 was no more than 0.03 µM in the experiment with ATXN3 pre-mRNA and 0.03 to 0.3 µM in experiment [1].

“2-((1S,6S)-6-aminocyclohex-3-en-1-yl)-5-chloro-N-(thiophen-2-ylmethyl)thieno[3,2-b]pyridin-7-amine [Compound 448]”: the IC50 was 0.03 to 0.3 µM with ATXN3 pre-mRNA and greater than 1 µM in experiment [1].

On to “2-((2R,3R)-3-amino-5-methylenetetrahydro-2H-pyran-2-yl)-3-bromo-5-chloro-N-(thiophen-2-ylmethyl)thieno[3,2-b]pyridin-7-amine and 2-((2S,3S)-3-amino-5-methylenetetrahydro-2H-pyran-2-yl)-3-bromo-5-chloro-N-(thiophen-2-ylmethyl)thieno[3,2-b]pyridin-7-amine [Compound 259]”, for which the IC50 (in the experiment with ATXN3 pre-mRNA; in experiment [1]) was 0.03 to 0.3 µM in each case.

For the substance “2-((2R,3R)-3-aminobicyclo[3.2.1]octan-2-yl)-3-bromo-5-chloro-N-(thiophen-2-ylmethyl)thieno[3,2-b]pyridin-7-amine and 2-((2S,3S)-3-aminobicyclo[3.2.1]octan-2-yl)-3-bromo-5-chloro-N-(thiophen-2-ylmethyl)thieno[3,2-b]pyridin-7-amine [Compound 85]”, the IC50 (in the experiment with ATXN3 pre-mRNA; in experiment [1]) was greater than 1 µM throughout.

In the case of “2-((2R,3R)-3-aminotetrahydro-2H-pyran-2-yl)-3-bromo-5-chloro-1-(difluoromethyl)-N-(thiophen-2-ylmethyl)-1H-pyrrolo[3,2-b]pyridin-7-amine and 2-((2S,3S)-3-aminotetrahydro-2H-pyran-2-yl)-3-bromo-5-chloro-1-(difluoromethyl)-N-(thiophen-2-ylmethyl)-1H-pyrrolo[3,2-b]pyridin-7-amine [Compound 224]”, the 50% inhibitory concentration (IC50) (in the experiment on ATXN3 pre-mRNA; in experiment [1]) was no more than 0.03 µM in each case.

On to “2-((2R,3R)-3-aminotetrahydro-2H-pyran-2-yl)-5-chloro-3-iodo-N-(thiophen-2-ylmethyl)thieno[3,2-b]pyridin-7-amine and 2-((2S,3S)-3-aminotetrahydro-2H-pyran-2-yl)-5-chloro-3-iodo-N-(thiophen-2-ylmethyl)thieno[3,2-b]pyridin-7-amine [Compound 266]”, for which the IC50 (in the experiment on ATXN3 pre-mRNA; in experiment [1]) was 0.03 to 0.3 µM each time.
